Consider two compounds from patent US10189845B2, “4,6-substituted-pyrazolo[1,5-a]pyrazines as janus kinase inhibitors” (ARRAY BIOPHARMA INC., priority 2014, dated 2019).

The structures appear in SMILES notation.

Holding throughout (format): biochemical
The target of one assay is JAK1 (Homo sapiens (Human), UniProt P23458). The experiment in a line: JAK1 Inhibition Assay (Example B, Omnia kinase fluorescence peptide substrate assay). The procedure, abridged: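 Kinetic fluorescence read (360 nm excitation, 485 nm emission, every 50 s over 45 min) of Omnia Y12 peptide (8 μM) phosphorylation by 12.5 nM human JAK1 at 1 mM ATP. Buffer: HEPES pH 7.4, MgCl2, Triton X-100, DTT; 2% DMSO. IC50 = concentration giving 50 POC on logistic curve.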

The target in another assay is JAK3 (Homo sapiens (Human), UniProt P52333). The experiment in a line: JAK3 Inhibition Assay (Example D, Omnia kinase fluorescence peptide substrate assay). The procedure, abridged: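 Omnia Sox-peptide kinetic read (ex 360 nm, em 485 nm, every 50 s over 45 min) tracked phosphorylation of 10 μM Y7 peptide by 2 nM recombinant JAK3 at 1 mM ATP. Buffer: 25 mM HEPES pH 7.4, 10 mM MgCl2, 0.01% Triton X-100, 1 mM DTT, with 2% DMSO final.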

The next assay concerns the target JAK2 (Homo sapiens (Human), UniProt O60674). The experiment in a line: JAK2 Inhibition Assay (Example C, Omnia kinase fluorescence peptide substrate assay). Particulars: JAK2 Enzyme IC50 1 mM ATP, averaged IC50 ranges. In short, it runs like this:
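Kinetic fluorescence read of Omnia Y7 peptide (10 μM) phosphorylation, ex 360/em 485 nm every 50 s over 45 min, by 4 nM JAK2 at 1 mM ATP. Buffer 25 mM HEPES pH 7.4, 10 mM MgCl2, 0.01% Triton X-100, 1 mM DTT; final DMSO 2%. Percent-of-control values fitted by 4-parameter logistic for IC50.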

The next assay has as its target Human Tyk2 kinase domain (Homo sapiens (Human), UniProt P29597). The experiment in a line: Tyk2 Inhibition Assay (Example A, Omnia kinase fluorescence peptide substrate assay). The conditions noted are these: TYK2 Enzyme IC50 1 mM ATP, averaged IC50 ranges. In short, it runs like this: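 IC50 values come from a 4-parameter logistic fit of percent-of-control data, with compounds at 2% final DMSO. Reactions held 1 nM His-tag-cleaved Tyk2 (aa 886–1187), 8 μM Omnia Y12 peptide and 1 mM ATP in pH 7.4 HEPES buffer with 10 mM MgCl2, Triton X-100 and DTT. Sox fluorescence (360/485 nm) was monitored kinetically over 45 min.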

Human Tyk2 kinase domain, sequence (P29597 886-1187): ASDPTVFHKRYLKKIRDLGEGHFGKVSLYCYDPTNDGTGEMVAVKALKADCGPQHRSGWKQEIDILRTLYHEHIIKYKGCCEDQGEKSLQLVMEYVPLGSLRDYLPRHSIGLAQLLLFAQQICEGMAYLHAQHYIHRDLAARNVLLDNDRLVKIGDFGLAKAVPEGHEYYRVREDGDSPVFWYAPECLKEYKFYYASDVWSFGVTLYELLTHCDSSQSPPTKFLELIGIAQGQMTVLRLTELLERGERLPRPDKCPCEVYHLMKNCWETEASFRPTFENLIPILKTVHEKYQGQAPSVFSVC
JAK3, sequence (P52333 whole entry): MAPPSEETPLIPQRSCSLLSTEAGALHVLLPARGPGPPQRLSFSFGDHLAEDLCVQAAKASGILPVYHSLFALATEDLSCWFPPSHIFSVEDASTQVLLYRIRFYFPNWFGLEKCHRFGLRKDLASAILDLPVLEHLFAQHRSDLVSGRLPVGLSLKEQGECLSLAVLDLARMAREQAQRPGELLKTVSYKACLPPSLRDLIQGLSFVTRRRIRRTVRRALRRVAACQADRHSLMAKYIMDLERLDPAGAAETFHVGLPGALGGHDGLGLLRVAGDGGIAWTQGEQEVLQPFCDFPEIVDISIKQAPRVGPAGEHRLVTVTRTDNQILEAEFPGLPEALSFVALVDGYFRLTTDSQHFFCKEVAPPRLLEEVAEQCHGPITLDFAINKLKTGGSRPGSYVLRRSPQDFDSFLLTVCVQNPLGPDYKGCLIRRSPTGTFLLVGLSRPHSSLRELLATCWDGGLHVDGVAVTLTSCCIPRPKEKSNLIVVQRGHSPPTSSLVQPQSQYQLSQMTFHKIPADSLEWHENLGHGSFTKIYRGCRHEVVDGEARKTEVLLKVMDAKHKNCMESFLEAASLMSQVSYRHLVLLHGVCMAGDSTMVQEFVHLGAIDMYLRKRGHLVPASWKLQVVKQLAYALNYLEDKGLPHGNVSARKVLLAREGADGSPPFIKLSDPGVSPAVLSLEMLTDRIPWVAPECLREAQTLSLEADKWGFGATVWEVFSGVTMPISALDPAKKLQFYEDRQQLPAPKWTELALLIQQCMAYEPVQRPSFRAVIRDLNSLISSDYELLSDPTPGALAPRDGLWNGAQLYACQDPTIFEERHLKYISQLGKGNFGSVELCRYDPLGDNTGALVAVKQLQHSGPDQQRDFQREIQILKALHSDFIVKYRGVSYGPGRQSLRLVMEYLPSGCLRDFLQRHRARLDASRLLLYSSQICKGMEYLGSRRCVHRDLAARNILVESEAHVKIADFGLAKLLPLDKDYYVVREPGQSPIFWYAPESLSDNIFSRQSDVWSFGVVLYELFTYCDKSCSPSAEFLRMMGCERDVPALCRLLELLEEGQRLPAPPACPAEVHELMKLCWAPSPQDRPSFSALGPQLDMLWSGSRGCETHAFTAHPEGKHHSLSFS
JAK1, sequence (P23458 whole entry): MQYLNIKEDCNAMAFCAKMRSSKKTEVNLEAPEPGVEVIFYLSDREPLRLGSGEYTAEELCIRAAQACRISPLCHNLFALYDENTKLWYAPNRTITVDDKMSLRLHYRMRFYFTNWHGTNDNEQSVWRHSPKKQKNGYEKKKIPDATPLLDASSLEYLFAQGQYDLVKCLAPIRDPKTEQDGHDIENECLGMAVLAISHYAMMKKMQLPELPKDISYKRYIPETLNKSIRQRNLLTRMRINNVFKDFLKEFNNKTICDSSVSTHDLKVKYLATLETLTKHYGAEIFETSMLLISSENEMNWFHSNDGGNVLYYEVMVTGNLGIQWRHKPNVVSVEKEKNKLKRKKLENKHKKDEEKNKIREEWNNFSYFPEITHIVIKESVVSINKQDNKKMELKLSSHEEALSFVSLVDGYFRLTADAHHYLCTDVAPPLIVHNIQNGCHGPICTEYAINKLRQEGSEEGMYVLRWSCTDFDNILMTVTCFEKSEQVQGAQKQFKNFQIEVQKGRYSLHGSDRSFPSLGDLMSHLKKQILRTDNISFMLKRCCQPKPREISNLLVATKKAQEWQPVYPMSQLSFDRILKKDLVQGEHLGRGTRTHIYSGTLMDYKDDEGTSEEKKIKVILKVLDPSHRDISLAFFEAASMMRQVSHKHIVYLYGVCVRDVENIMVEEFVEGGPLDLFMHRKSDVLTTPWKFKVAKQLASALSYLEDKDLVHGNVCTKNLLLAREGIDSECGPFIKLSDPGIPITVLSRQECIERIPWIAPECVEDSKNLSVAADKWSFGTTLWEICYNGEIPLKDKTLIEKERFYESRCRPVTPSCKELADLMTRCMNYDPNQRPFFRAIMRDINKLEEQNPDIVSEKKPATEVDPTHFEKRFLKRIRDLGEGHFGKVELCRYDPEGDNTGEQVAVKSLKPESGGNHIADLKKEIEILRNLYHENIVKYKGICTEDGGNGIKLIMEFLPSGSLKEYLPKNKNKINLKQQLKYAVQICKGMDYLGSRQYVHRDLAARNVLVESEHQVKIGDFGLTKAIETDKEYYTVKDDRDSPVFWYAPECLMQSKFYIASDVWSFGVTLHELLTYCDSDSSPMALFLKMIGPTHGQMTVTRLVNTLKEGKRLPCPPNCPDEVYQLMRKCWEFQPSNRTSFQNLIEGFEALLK
JAK2, sequence (O60674 whole entry): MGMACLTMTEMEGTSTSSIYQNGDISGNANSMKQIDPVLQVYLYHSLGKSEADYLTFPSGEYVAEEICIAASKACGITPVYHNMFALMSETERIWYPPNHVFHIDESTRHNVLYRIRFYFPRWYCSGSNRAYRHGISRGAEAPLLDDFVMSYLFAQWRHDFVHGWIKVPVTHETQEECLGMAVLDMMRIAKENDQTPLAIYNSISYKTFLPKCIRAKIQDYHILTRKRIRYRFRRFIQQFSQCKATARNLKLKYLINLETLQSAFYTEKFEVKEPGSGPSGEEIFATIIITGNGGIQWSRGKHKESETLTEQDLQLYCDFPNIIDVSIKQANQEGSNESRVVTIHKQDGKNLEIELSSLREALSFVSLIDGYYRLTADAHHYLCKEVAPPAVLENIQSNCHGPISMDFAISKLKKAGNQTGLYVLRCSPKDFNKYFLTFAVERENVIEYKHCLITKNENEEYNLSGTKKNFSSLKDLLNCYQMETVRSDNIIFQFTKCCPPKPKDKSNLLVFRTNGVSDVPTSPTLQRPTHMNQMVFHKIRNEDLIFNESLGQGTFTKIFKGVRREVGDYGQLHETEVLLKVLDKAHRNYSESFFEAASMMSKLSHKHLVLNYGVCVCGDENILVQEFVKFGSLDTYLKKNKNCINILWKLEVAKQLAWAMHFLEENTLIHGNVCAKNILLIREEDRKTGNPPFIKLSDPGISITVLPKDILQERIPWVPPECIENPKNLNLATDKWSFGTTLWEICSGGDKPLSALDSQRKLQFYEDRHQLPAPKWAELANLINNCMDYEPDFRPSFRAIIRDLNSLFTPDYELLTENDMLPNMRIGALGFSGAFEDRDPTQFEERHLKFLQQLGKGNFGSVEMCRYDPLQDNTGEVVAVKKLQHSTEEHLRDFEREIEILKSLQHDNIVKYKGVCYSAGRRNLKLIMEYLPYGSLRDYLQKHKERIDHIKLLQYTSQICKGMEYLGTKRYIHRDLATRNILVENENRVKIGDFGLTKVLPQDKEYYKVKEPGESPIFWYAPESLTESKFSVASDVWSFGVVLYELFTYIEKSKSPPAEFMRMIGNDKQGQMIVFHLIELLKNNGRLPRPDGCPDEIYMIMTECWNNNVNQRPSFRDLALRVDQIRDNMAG

`CCC(CC)n1cc(-c2nc(-c3cnn([C@H]4C[C@@H](CO)C4)c3)cn3nccc23)cn1` [compound 166, (cis-3-(4-(4-(1-(pentan-3-yl)-1H-pyrazol-4-yl)pyrazolo[1,5-a]pyrazin-6-yl)-1H-pyrazol-1-yl)cyclobutyl)methanol]: the half-inhibitory concentration (IC50) against JAK1 was in the range of 100 to 1000 nM; against JAK3 it was 1000 to 10000 nM; against JAK2, 10 to 100 nM; against Human Tyk2 kinase domain, 10 to 100 nM.
As for `CCC(CC)n1cc(-c2nc(-c3cnn(C4CN(C(=O)CO)C4)c3)cn3nccc23)cn1` [compound 174, 2-hydroxy-1-(3-(4-(4-(1-(pentan-3-yl)-1H-pyrazol-4-yl)pyrazolo[1,5-a]pyrazin-6-yl)-1H-pyrazol-1-yl)azetidin-1-yl)ethanone], the IC50 at JAK1 lay in the range of 100 to 1000 nM; at JAK3, 1000 to 10000 nM; against JAK2, 10 to 100 nM; against Human Tyk2 kinase domain, 10 to 100 nM.

What is called IC50 is the midpoint of a concentration-inhibition curve.
